Where “and” joins values, the source holds several entries; their conditions need not be identical. Equal entries are not always repeated.
Assays:
[1] = target: L. major FolD; design: method as in PMID 22108435, PMID 23050773; conditions: competitive inhibitor; cited from earlier work
[2] = target: Pseudomonas aeruginosa FolD; design: method as in PMID 22108435, PMID 23050773; conditions: competitive inhibitor; cited from earlier work
[3] = tested on: TbFolD; test: FolD dehydrogenase enzyme inhibition assay; format: biochemical, Trypanosoma brucei; conditions: for FolD inhibition IC50 / FolD inhibition Ki: recombinant TbFolD, dehydrogenase activity; for FolD inhibition IC50: 35 μM mTHF, 1 mM NADP+, 27 °C, pH 7.3; for FolD inhibition Ki: data fitted to a competitive model; for increase of the inhibitory potency compared to that of compound 2: TbFolD, from Ki
Experimental: The dehydrogenase activity of FolD was measured spectrophotometrically, using a Beckman DU-640 spectrophotometer, following the formation of 5,10-CH=THF from 5,10-CH2-THF. 5,10-CH2-THF dehydrogenase assays were carried out in a 0.5 mL volume at 27 °C and contained 25 mM MOPS, pH 7.3, 30 mM 2-mercaptoethanol, 35 μM mTHF, and 1 mM NADP^+. The Km values of substrate and cofactor having been previously elucidated as approximately 35 and 70 μM. The reaction was initiated by the addition of NADP^+ and incubated for 5 min then stopped by the addition of an equal volume of 1 M HCl and the 5,10-CH=THF produced quantified at 350 nm, using an extinction coefficient of 24.9 mM^–1 cm^–1. The enzyme activity was expressed as μ moles 5,10-CH=THF produced per minute. Enzyme inhibition was measured using the dehydrogenase assay, with stocks of compounds dissolved in DMSO (10 mM). The concentration of compound in the first test was 0–50–100 μM. Data from inhibition assays were fitted to a competitive model by linear regression using Origin (OriginLab Corporation). […]
with 50 mM bicine, 250 mM NaCl, 0.5 mM DTT, 10 % glycerol pH 8.0. The typical yield of protein was approximately 7 mg/L of cell culture. The addition of 10% glycerol in all buffers was required to prevent loss of activity when the samples were flashyfrozen.
The dehydrogenase activity of FolD was measured spectrophotometrically, using a Beckman DUy 640 spectrophotometer, following either the formation of 5,10yCH=THF from 5,10yCH2yTHF (DH activity). 5,10yCH2yTHF dehydrogenase assays were carried out in a 0.5 mL volume at 27 °C and contained 25 mM MOPS, pH 7.3, 30 mM 2ymercaptoethanol 35 µM mTHF, 1 mM NADP+. The reaction was initiated by addition of NADP+ and incubated for 5 minutes then stopped by the addition of an equal volume of 1 M HCl and the 5,10yCH=THF produced quantified at 350 nm, using a extinction coefficient of 24.9 mM−1 cm−1. DH activity was expressed as µ moles 5,10y CH=THF produced per minute. Enzyme inhibition was measured using the dehydrogenase assay, with stocks of compounds dissolved in DMSO (10 mM). The concentration of compound in the first test was 0y50y100 µM. Data from inhibition assays were fitted to competitive model by linear […]
The bloodstreamyform T. brucei brucei strain 427 was grown in HMIy9 medium – 17.66 mg/mL IMDM (Gibco), 3.020 mg/mL sodium bicarbonate (SigmayAldrich), 0.136 mg/mL hypoxanthine (SigmayAldrich), 0.039 mg/mL thymidine (SigmayAldrich) and 0.028 mg/mL bathocuproine sulfonic acid (SigmayAldrich) y supplemented with 10% heatyinactivated fetal bovine serum (FBS) (BioWhittaker), 1.5 mM Lycysteine hydrochloride monohydrate (Merck), 0.2 mM βy mercaptoethanol (SigmayAldrich), 100 U/mL penicillin and 100 U/mL streptomycin (BioWhittaker) at 37 °C under a humidified 5% CO2 atmosphere. Cultures were grown in T25 or T75 vented cap culture flasks (Sarstedt) and subycultured every 2y3 days by 100 to 1000yfold dilution, respectively.
Parasites were counted directly using a Neubauer chamber (Marienfeld) and diluted appropriately in […]
In vitro growth inhibition assays

[4] = target: human FolD; design: method as in PMID 22108435, PMID 23050773; conditions: competitive inhibitor; cited from earlier work
[5] = target: Trypanosoma brucei N5,N10-methylenetetrahydrofolate dehydrogenase/cyclohydrolase (FolD) (Trypanosoma brucei (Lister 927 strain)); test: SEC; size exclusion chromatography (gel filtration) of recombinant TbFolD in solution; conditions not given in the main text
[6] = tested on: THP1 differentiated macrophages; test: Cytotoxicity, colorimetric MTT assay; format: cell-based; conditions: human THP1 differentiated macrophages, 72 h, read-out: THP1 in vitro growth inhibition IC50
Experimental: The cytotoxicity of the compounds under study was assessed by a colorimetric MTT assay.[26],[27] THP1 differentiated macrophages were seeded at a density of 10^5 cells/well in 96-well plates and allowed to adhere overnight. Cells were incubated with the compound concentration range for 72 h at 37 °C. At the end of the incubation period, 200 μL of 0.5 mg/mL MTT reagent (thiazolyl blue tetrazolium bromide, Sigma) solution was added to each well. The plates were further incubated for 4 h at 37 °C in the dark. The culture medium was subsequently discarded, and 200 μL of isopropanol was added to dissolve the dark-blue formazan crystals. Cell viability was quantified spectrophotometrically by measuring the absorbance of the formazan product at wavelength 570 nm and the background at 660 nm with a microplate reader (Synergy 2, Biotek, USA). The data are expressed as the percentages of viable cells compared to the survival of a control group (untreated cells). […]
additional 4 h and then the fluorescence read in a microplate reader (Sinergy 2, BioTek) using an […]
calculated by linear regression.
The cytotoxicity of the compounds under study was assessed by a colorimetric MTT assay. […]
added to dissolve the darkyblue formazan crystals. Cell viability was quantified
spectrophotometrically by measuring the absorbance of the formazan product at the wavelength of […]

[7] = Solubility in organic solvents (crystallization trials); format: physicochemical; conditions: room temperature, with the exception of DMSO
Description: We therefore tried to grow crystals from DMSO (in different conditions) and from mixtures of DMSO/CH3CN. Eventually, crystallization by slow evaporation (16 days) of a solution of 3 in reagent-grade DMSO (Sigma-Aldrich) at room temperature produced small plates suitable for the determination of the molecular connectivity. After testing several samples, a specimen (0.25 × 0.20 × 0.05 mm^3) grown at the liquor/air interface was selected for the crystallographic analysis. The specimen manifested a significant pleochroism (colorless to violet) under polarized light. It was mounted on the top of a glass capillary fiber in dense perfluorinated oil. The X-ray data collection was performed at room temperature on a 3-circle Bruker SMART APEX goniometer equipped with a CCD APEX-II detector, using graphite-monochromated Mo Kα radiation (λ = 0.71073 Å). A total of 26180 reflections (8144 unique) were recorded up to (sin ϑ/λ)MAX = 0.5017 Å^–1. A high exposure time (120 s/frame) was employed due to the small dimensions of the sample and its very low scattering power.

Compound | FolD inhibition IC50 [3] | FolD inhibition Ki [3] | other results
Nc1nc2c(c(=O)[nH]1)N1C(=O)N(c3ccc(C(=O)NC(CCC(=O)O)C(=O)O)cc3)CC1CN2 (stereo not shown) [Compound 21, reference compound] | 20 ± 1.2 µM | 8.5 µM and 8.5 ± 0.5 µM | Ki L. major FolD [1]: 0.105 µM; Ki Pseudomonas aeruginosa FolD [2]: 0.03 µM; Ki human FolD [4]: 0.029 µM
Trypanosoma brucei N5,N10-methylenetetrahydrofolate dehydrogenase/cyclohydrolase (FolD) (enzyme) | – | – | stoichiometry N [5]: 2
Nc1nc(N)c(NC(=O)Nc2ccc(C(=O)N[C@@H](Cc3ccc(O)cc3)C(=O)O)cc2)c(=O)[nH]1 [Compound 19, (S)-2-(4-(3-(2,4-Diamino-6-hydroxypyrimidin-5-yl)ureido)benzamido)-3-(4-hydroxyphenyl)propanoic Acid] | 9.3 ± 0.9 µM | 7.3 ± 0.7 µM | –
Nc1nc(N)c(NC(=O)Nc2ccc(C(=O)N[C@@H](CCC(=O)O)C(=O)O)cc2)c(=O)[nH]1 [Compound 2, (S)-2-(4-(3-(2,4-Diamino-6-oxo-1,6-dihydropyrimidin-5-yl)ureido)benzamido)pentanedioic Acid] | 2.2 µM and 2.2 ± 0.5 µM | 1.1 µM and 1.1 ± 0.8 µM | –
Nc1nc(N)c(NC(=O)Nc2ccc(C(=O)N[C@@H](Cc3ccccc3)C(=O)O)cc2)c(=O)[nH]1 [Compound 18, (S)-2-(4-(3-(2,4-Diamino-6-hydroxypyrimidin-5-yl)ureido)benzamido)-3-phenylpropanoic Acid] | 1.1 ± 0.25 µM | 0.54 µM and 0.54 ± 0.08 µM | increase of the inhibitory potency compared to that of compound 2 [3]: 2 fold
(S)-2-(4-(3-(2,4-diamino-6-hydroxypyrimidin-5-yl)ureido)benzamido)hexanedioic Acid [Compound 16] | 1.0 ± 0.3 µM | 0.48 µM and 0.48 ± 0.7 µM | increase of the inhibitory potency compared to that of compound 2 [3]: 2 fold; IC50 [6]: 90 ± 16 µM
C[C@H](NC(=O)c1ccc(NC(=O)Nc2c(N)nc(N)[nH]c2=O)cc1)C(=O)O [Compound 17, (S)-2-(4-(3-(2,4-Diamino-6-hydroxypyrimidin-5-yl)ureido)benzamido)propanoic Acid] | 6.3 ± 0.8 µM | 3.2 ± 0.3 µM | –
Nc1nc(N)c(NC(=O)Nc2ccc(C(=O)NCCCC(=O)O)cc2)c(=O)[nH]1 [Compound 20, 4-(4-(3-(2,4-Diamino-6-hydroxypyrimidin-5-yl)ureido)benzamido)butanoic Acid] | 213 ± 18 µM | 168 ± 8.5 µM | –
CCOC(=O)c1ccc(NC(=O)Nc2c(N)nc(N)[nH]c2=O)cc1 [Compound 3, Ethyl 4-(3-(2,4-diamino-6-oxo-1,6-dihydropyrimidin-5-yl)ureido)benzoate] | – | – | solubility in most organic solvents [7]: poorly soluble
